pIC50, pKd: −log10 of the molar value. Read-outs that look alike come from different tables or passages of the source.
How the values were obtained:
[1] = molecular target: T1, TYK2 JH2 (Homo sapiens, UniProt P29597); test: TYK2 JH2 binding assay (KINOMEscan KdELECT competitive binding); settings: TYK2 JH2 domain
T1 construct: purchased DiscoverX (KINOMEscan KdELECT service); host or cells: E. coli BL21-derived (T7 phage display) or HEK-293
In short: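 Beads carrying a biotinylated ligand were mixed with tagged JH2 kinase and compound (11 points, 3-fold steps, 0.9% DMSO) and shaken 1 h at room temperature. After washing, kinase was released with 0.5 μM untagged ligand over 30 min and measured by qPCR to derive Kd.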

[2] = system: JAK1/TYK2 pSTAT5 (Tyr694/699) in THP-1 cell line; test: IFNa-stimulated JAK1/TYK2 pSTAT5 (Tyr694/699) inhibition cellular assay, AlphaLISA; assay type: cell-based; settings: Homo sapiens, THP-1 cells, AlphaLISA (Assay B)
In short: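 Compound dilutions were dispensed first, and HBSS-suspended THP-1 cells were added on top (final top concentration 10000 nM, 6-fold series). After 1 h at 37 °C, IFNa (100 ng/mL as added) was applied for 30 min. Cells were then lysed and pSTAT5 was quantified by AlphaLISA.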

[3] = DiscoverX KINOMEscan KdELECT (Assay A), read-out: Biochemical TYK2_DiscoverX_JH2_BND_Kd
[4] = IFNa-stimulated, read-out: Cellular_THP1_IFNa-pSTATS_TYK2
[5] = KINOMEscan KdELECT (Assay A), read-out: Biochemical TYK2_DiscoverX_JH2_BND_Kd
[6] = KINOMEscan KdELECT (Assay A), read-out: Biochemical TYK2_JH2_Kd
[7] = IFNa-stimulated, read-out: Cellular THP1_IFNa-pSTATS_IC50
[8] = IFNa-stimulated pSTAT5 (Tyr694/699), read-out: Cellular_THP1_IFNa-pSTATS_TYK2

T1 sequence (P29597 589-875 limits assumed): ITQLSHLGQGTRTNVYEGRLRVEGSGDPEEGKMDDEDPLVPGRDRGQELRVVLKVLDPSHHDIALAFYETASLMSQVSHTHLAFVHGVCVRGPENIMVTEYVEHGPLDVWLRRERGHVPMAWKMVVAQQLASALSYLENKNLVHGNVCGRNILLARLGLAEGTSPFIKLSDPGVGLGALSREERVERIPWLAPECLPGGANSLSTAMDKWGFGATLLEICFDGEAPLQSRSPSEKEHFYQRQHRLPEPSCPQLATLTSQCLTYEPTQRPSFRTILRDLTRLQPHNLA

Compound	pKd [1, 3]	pIC50 [2, 4]	pKd [1, 5]	further results
CNc1ncc(-c2nc3cc(C#N)ccc3o2)c2cc(NC(=O)C3CC3)ncc12 [Example 210, N-(5-(5-cyanobenzo[d]oxazol-2-yl)-8-(methylamino)-2,7-naphthyridin-3-yl)cyclopropanecarboxamide]	≥ 7.00	≥ 6.30		
CNc1ncc(-c2nc3ccc(OC)cn3n2)c2cc(NC(=O)C3CC3)ncc12 [Example 470, N-(5-(6-methoxy-[1,2,4]triazolo[1,5-a]pyridin-2-yl)-8-(methylamino)-2,7-naphthyridin-3-yl)cyclopropanecarboxamide]	≥ 7.00	≥ 6.30		
CNc1ncc(-c2nc3cc(N4CCC[C@H](OC)C4)ccc3o2)c2cc(NC(=O)C3CC3)ncc12 [Example 291, (S)-N-(5-(5-(3-methoxypiperidin-1-yl)benzo[d]oxazol-2-y1)-8-(methylamino)-2,7-naphthyridin-3-yl)cyclopropanecarboxamide]	≥ 7.00	≥ 6.30		
[2H]C([2H])([2H])Nc1ncc(-c2nc3cc(N4CCO[C@H](C)C4)ccc3o2)c2cc(NC(=O)[C@H]3C[C@H]3C)ncc12 [Example 441, (1S,2R)-2-methyl-N-(8-((methyl-d3)amino)-5-(5-((R)-2-methylmorpholino)benzo[d]oxazol-2-yl)-2,7-naphthyridin-3-yl)cyclopropane-1-carboxamide]	≥ 7.00	≥ 6.30		
CNc1ncc(C#Cc2ccc(Oc3nccn3C)cc2)c2cc(NC(=O)C3CC3)ncc12 [Example 966, N-(5-((4-((1-methyl-1H-imidazol-2-yl)oxy)phenyl)ethynyl)-8-(methylamino)-2,7-naphthyridin-3-yl)cyclopropanecarboxamide]		≥ 6.30	≥ 7.00	
CNc1ncc(-c2nc3cc([C@]45C[C@H](CO4)C5)ccc3o2)c2cc(NC(=O)C3CC3)ncc12 [Example 946, N-(5-(5-((1s,4s)-2-oxabicyclo[2.1.1]hexan-1-yl)benzo[d]oxazol-2-yl)-8-(methylamino)-2,7-naphthyridin-3-yl)cyclopropanecarboxamide]		≥ 6.30	≥ 7.00	
CNc1ncc(C#Cc2ccc(OC3CC3)cc2)c2cc(NC(=O)C3CC3)ncc12 [Example 638, N-(5-((4-cyclopropoxyphenyl)ethynyl)-8-(methylamino)-2,7-naphthyridin-3-yl)cyclopropanecarboxamide]		≥ 6.30	≥ 7.00	
CNc1ncc(-c2ccn(CC#N)n2)c2cc(NC(=O)C3CC3)ncc12 [Example 87, N-(5-(1-(cyanomethyl)-1H-pyrazol-3-yl)-8-(methylamino)-2,7-naphthyridin-3-yl)cyclopropanecarboxamide]				pKd [1, 6]: ≥ 7.00; pIC50 [2, 7]: < 6.30
CNc1ncc(C#Cc2cn(C)c(C)n2)c2cc(NC(=O)[C@H]3C[C@H]3C)ncc12 [Example 1010, (1S,2R)-N-(5-((1,2-dimethyl-1H-imidazol-4-y)ethynyl)-8-(methylamino)-2,7-naphthyridin-3-yl)-2-methylcyclopropane-1-carboxamide]			≥ 7.00	pIC50 [2, 8]: ≥ 6.30
CNc1ncc(-c2nc3ccc(N4CCOCC4)cc3s2)c2cc(NC(=O)C3CC3)ncc12 [Example 1094, N-(8-(methylamino)-5-(6-morpholinobenzo[d]thiazol-2-yl)-2,7-naphthyridin-3-yl)cyclopropanecarboxamide]			≥ 7.00	pIC50 [2, 8]: ≥ 6.30
CNc1ncc(-c2ncccc2OC)c2cc(NC(=O)C3CC3)ncc12 [Example 5, N-(5-(3-methoxypyridin-2-yl)-8-(methylamino)-2,7-naphthyridin-3-yl)cyclopropanecarboxamide]				pKd [1, 6]: 6.00 to 7.00; pIC50 [2, 7]: < 6.30
CNc1ncc(-c2nc3cc(N4CCC4)ccc3o2)c2cc(NC(=O)C3CC3)ncc12 [Example 277, N-(5-(5-(azetidin-1-yl)benzo[d]oxazol-2-yl)-8-(methylamino)-2,7-naphthyridin-3-yl)cyclopropanecarboxamide]	≥ 7.00	≥ 6.30		
CNc1ncc(-c2nc3ccc(N4CCOCC4)cn3n2)c2cc(NC(=O)C3(C(F)F)CC3)ncc12 [Example 1072, 1-(difluoromethyl)-N-[8-(methylamino)-5-(6-morpholino-[1,2,4]triazolo[1,5-a]pyridin-2-yl)-2,7-naphthyridin-3-yl]cyclopropanecarboxamide]			≥ 7.00	pIC50 [2, 8]: ≥ 6.30
CNc1ncc(C#Cc2ccc(OCF)cn2)c2cc(NC(=O)C3CC3)ncc12 [Example 732, N-(5-((5-(fluoromethoxy)pyridin-2-yl)ethynyl)-8-(methylamino)-2,7-naphthyridin-3-yl)cyclopropanecarboxamide]		≥ 6.30	≥ 7.00	
CNc1ncc(C#Cc2ccc(N3CCO[C@@H](C)C3)cc2)c2cc(NC(=O)C3CC3)ncc12 [Example 709, (S)—N-(8-(methylamino)-5-((4-(2-methylmorpholino)phenyl)ethynyl)-2,7-naphthyridin-3-yl)cyclopropanecarboxamide]		≥ 6.30	≥ 7.00	
CCc1cc2cc(NC(=O)C3CC3)ncc2c(NC)n1 [Example 165, N-(6-ethyl-8-(methylamino)-2,7-naphthyridin-3-yl)cyclopropanecarboxamide]				pKd [1, 6]: ≥ 7.00; pIC50 [2, 7]: < 6.30
CNc1ncc(-c2nc3ccncc3o2)c2cc(NC(=O)C3CC3)ncc12 [Example 357, N-(8-(methylamino)-5-(oxazolo[5,4-c]pyridin-2-yl)-2,7-naphthyridin-3-yl)cyclopropanecarboxamide]	≥ 7.00	< 6.30		
CNc1ncc(-c2nc3cc(OC[C@H](C)OC)ccc3o2)c2cc(NC(=O)C3CC3)ncc12 [Example 242, (S)—N-(5-(5-(2-methoxypropoxy)benzo[d]oxazol-2-yl)-8-(methylamino)-2,7-naphthyridin-3-yl)cyclopropanecarboxamide]	≥ 7.00	≥ 6.30		
CNc1ncc(-c2cc3ccc(N4CCOCC4)cn3n2)c2cc(NC(=O)C3CC3)ncc12 [Example 796, N-(8-(methylamino)-5-(6-morpholinopyrazolo[1,5-a]pyridin-2-yl)-2,7-naphthyridin-3-yl)cyclopropanecarboxamide]		≥ 6.30	≥ 7.00	
CNc1ncc(-c2nc3cc(N4CCN(C)CC4)ccc3o2)c2cc(NC(=O)C3CC3)ncc12 [Example 304, N-(8-(methylamino)-5-(5-(4-methylpiperazin-1-yI)benzo[d]oxazol-2-y1)-2,7-naphthyridin-3-yl)cyclopropanecarboxamide]	≥ 7.00	≥ 6.30		
CNc1ncc(C#Cc2ccc(OC)cn2)c2cc(NC(=O)[C@@H]3C[C@@H]3C(F)(F)F)ncc12 (single isomer, unassigned) [Example 746]		≥ 6.30	≥ 7.00	
CNc1ncc(-c2ccc(C(F)(F)F)cc2)c2cc(NC(=O)C3CC3)ncc12 [Example 109, N-(8-(methylamino)-5-(4-(trifluoromethyl)phenyl)-2,7-naphthyridin-3-yl)cyclopropanecarboxamide]				pKd [1, 6]: ≥ 7.00; pIC50 [2, 7]: < 6.30
CCNc1ncc(-c2nc3ccc(N4CC5CN(C)CC(C4)O5)cn3n2)c2cc(NC(=O)C3CC3)ncc12 [Example 581, N-(8-(ethylamino)-5-(6-(7-methyl-9-oxa-3,7-diazabicyclo[3.3.1]nonan-3-yl)-[1,2,4]triazolo[1,5-a]pyridin-2-yl)-2,7-naphthyridin-3-yl)cyclopropanecarboxamide]	≥ 7.00	≥ 6.30		
CCn1nccc1-c1cnc(NC)c2cnc(NC(=O)C3CC3)cc12 [Example 19, N-(5-(1-ethyl-1H-pyrazol-5-yl)-8-(methylamino)-2,7-naphthyridin-3-yl)cyclopropanecarboxamide]				pKd [1, 6]: ≥ 7.00; pIC50 [2, 7]: < 6.30
CNc1ncc(-c2ccc(COC)cc2)c2cc(NC(=O)C3CC3)ncc12 [Example 169, N-(5-(4-(methoxymethyl)phenyl)-8-(methylamino)-2,7-naphthyridin-3-yl)cyclopropanecarboxamide]				pKd [1, 6]: ≥ 7.00; pIC50 [2, 7]: < 6.30
CNc1ncc(-c2cc(C)n[nH]2)c2cc(NC(=O)C3CC3)ncc12 [Example 23, N-(5-(3-methyl-1H-pyrazol-5-yl)-8-(methylamino)-2,7-naphthyridin-3-yl)cyclopropanecarboxamide]				pKd [1, 6]: ≥ 7.00; pIC50 [2, 7]: < 6.30
[2H]C([2H])([2H])Nc1ncc(-c2nc3cc(OC)ccc3o2)c2cc(NC(=O)[C@H]3C[C@H]3C)ncc12 (racemic) [Example 436, N-(5-(5-methoxybenzo[d]oxazol-2-yl)-8-((methyl-d3)amino)-2,7-naphthyridin-3-yl)-2-methylcyclopropane-1-carboxamide]	≥ 7.00	≥ 6.30		
[2H]C([2H])([2H])Nc1ncc(-c2nc3cc(OC)ccc3o2)c2cc(NC(=O)[C@@H]3C[C@@H]3C)ncc12 (single isomer, unassigned) [Example 437]	≥ 7.00	≥ 6.30		

From patent US20240025906A1 (NEURON23, INC., priority 2022, published 2024)
